# Source: PubChem BioAssay (NCI)
# Values joined by “and” are separate entries in the source; they are usually repeats but may differ in a detail not shown here. Identical values can stand only once.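 Method: 48-hour compound exposure of cells in 96-well plates, five concentrations, linear interpolation of endpoints. GI50 marks 50% less growth. TGI: total growth inhibition.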
# How the values were obtained:
# Experiment in all cases: NCI anticancer screen, dose series, 48 h
# SN12C renal = system: SN12C renal
# SNB-75 CNS = system: SNB-75 CNS
# HT29 colon = system: HT29 colon
# IGROV1 ovarian = system: IGROV1 ovarian
# HOP-92 NSCLC = system: HOP-92 NSCLC
# HCT-116 colon = system: HCT-116 colon
# NCI-H23 lung = system: NCI-H23 lung
# OVCAR-8 ovarian = system: OVCAR-8 ovarian
# TK-10 renal = system: TK-10 renal
# DU-145 prostate = system: DU-145 prostate
SMILES,TGI (SN12C renal),TGI (SNB-75 CNS),TGI (HT29 colon),TGI (IGROV1 ovarian),TGI (HOP-92 NSCLC),TGI (HCT-116 colon),TGI (NCI-H23 lung),TGI (OVCAR-8 ovarian),TGI (TK-10 renal),TGI (DU-145 prostate),GI50 (SN12C renal),GI50 (HT29 colon),GI50 (IGROV1 ovarian),GI50 (HOP-92 NSCLC),GI50 (HCT-116 colon),GI50 (NCI-H23 lung),GI50 (OVCAR-8 ovarian),GI50 (TK-10 renal),GI50 (DU-145 prostate)
O=C(NCCc1ccc(F)cc1)c1cc(/C=C/c2cc(O)ccc2O)ccc1O,21.1 µM,14.4 µM,62.1 µM,7.66 µM,3.97 µM,3.94 µM,13.3 µM,13.6 µM,5.64 µM,33.2 µM,–,–,–,–,–,–,–,–,–
C/C(=C/CC[C@](C)(OC1OC(CO)C(O)C(O)C1OC1OC(C)C(O)C(O)C1O)[C@H]1CC[C@]2(C)[C@@H]1CC[C@@H]1[C@@]3(C)CC[C@H](O)C(C)(C)[C@@H]3C[C@H](O)[C@]12C)CO (stereo partly drawn),> 100 µM,> 100 µM,> 100 µM,> 100 µM,> 100 µM,> 100 µM,> 100 µM,> 100 µM,> 100 µM,> 100 µM,–,–,–,–,–,–,–,–,–
CC(C)=CCC[C@@H](C)c1c(O)c(O)c(C)c2nc3ccccc3nc12,6.38 µM,6.8 µM,17.5 µM,10.7 µM,5.11 µM,12.2 µM,8.61 µM,24.2 µM,17 µM,10.3 µM,–,–,–,–,–,–,–,–,–
CCCc1c(OC)c(O)c2c(=O)cc(OC)c3c4c(OC)cc(=O)c5c(O)c(OC)c(CCC)c(c1c23)c54,15.3 µM,23.6 µM,17.9 µM,16.2 µM,37.4 µM,13.2 µM,26.6 µM,22.6 µM,> 100 µM,13.2 µM,–,–,–,–,–,–,–,–,–
C=C1CN(C(=O)c2cc3cc(OC)c(OC)c(OC)c3[nH]2)c2cc([N+](=O)[O-])ccc21,> 100 µM,> 100 µM,> 100 µM,> 100 µM,> 100 µM,> 100 µM,> 100 µM,> 100 µM,> 100 µM,> 100 µM,–,–,–,–,–,–,–,–,–
CN(CCN(C)Cc1ccc(Cl)c(Cl)c1)CCN1CCCC1,> 100 µM,> 90.5 µM,> 72 µM,> 79.1 µM,82.1 µM,> 57.8 µM,> 100 µM,> 100 µM,> 100 µM,> 100 µM,–,–,–,–,–,–,–,–,–
CC1CCC(O)/C=C/C(=O)OC(C)C(O)/C=C/C(=O)O1 (stereo not drawn),> 100 µM,> 100 µM,> 100 µM,> 100 µM,> 100 µM,> 100 µM,> 100 µM,> 100 µM,> 100 µM,> 100 µM,–,–,–,–,–,–,–,–,–
CC(CCC(=O)O)(c1cc(Br)c(O)c(Br)c1)c1cc(Br)c(O)c(Br)c1,> 100 µM,> 100 µM,> 100 µM,> 100 µM,> 100 µM,> 100 µM,> 100 µM,> 100 µM,> 100 µM,> 100 µM,–,–,–,–,–,–,–,–,–
C/C(=N\NC(=S)N/N=C(\C)c1ccccn1)c1ccccn1,> 100 µM,> 100 µM,> 100 µM,> 100 µM,> 100 µM,> 100 µM,> 100 µM,> 100 µM,> 100 µM,> 100 µM,–,–,–,–,–,–,–,–,–
COC(=O)/C=C1\C(=O)N(C(C)=O)c2ccccc21,24.3 µM,28.4 µM,20.6 µM,22.4 µM,16.8 µM,31.2 µM,28.9 µM,45.6 µM,21.7 µM,24.1 µM,–,–,–,–,–,–,–,–,–
O=C(O)c1cc(/C=C/c2ccc(O)c(O)c2)ccc1O,> 100 µM,> 100 µM,> 100 µM,> 100 µM,> 100 µM,> 100 µM,> 100 µM,> 100 µM,> 100 µM,> 100 µM,–,–,–,–,–,–,–,–,–
NCCCCN(CCCN)C(=O)OCc1ccccc1,> 100 µM,> 100 µM,> 100 µM,> 100 µM,> 100 µM,> 100 µM,> 100 µM,> 100 µM,> 100 µM,> 100 µM,–,–,–,–,–,–,–,–,–
Cc1cc([C@H](C#N)c2nc3ccccc3s2)nc(Cl)n1,> 100 µM,6.54 µM,21.4 µM,23.3 µM,8.76 µM,15.3 µM,15 µM,14.3 µM,44.1 µM,91.7 µM,–,–,–,–,–,–,–,–,–
O=C1NC(N2CCOCC2)=N/C1=C\c1ccccc1,> 100 µM,> 100 µM,> 100 µM,> 100 µM,> 100 µM,> 100 µM,> 100 µM,> 100 µM,> 100 µM,> 100 µM,–,–,–,–,–,–,–,–,–
COc1cc(/C=C/C(=O)OC[C@]23O[C@H]2[C@@H](OC2OC(C)C(O)C(O)C2O)C2C=CO[C@@H](OC4OC(CO)C(O)C(O)C4O)C23)ccc1O (stereo partly drawn),> 100 µM,> 100 µM,> 100 µM,> 100 µM,> 100 µM,> 100 µM,> 100 µM,> 100 µM,> 100 µM,> 100 µM,–,–,–,–,–,–,–,–,–
NC(=O)c1ccc(N)nc1,> 400 µM,> 125 µM,> 229 µM,> 400 µM,> 400 µM,> 400 µM,> 400 µM,> 400 µM,> 400 µM,> 400 µM,–,–,–,–,–,–,–,–,–
CCOC(=O)n1c2ccccc2c2c(O)c(OC)c3c(c21)C(=O)NC3=O,> 100 µM,> 100 µM,84.3 µM,> 100 µM,> 100 µM,49 µM,> 100 µM,> 100 µM,> 100 µM,> 100 µM,–,–,–,–,–,–,–,–,–
Nc1c(Cl)ncnc1NCC1(CO)CCC1,> 100 µM,> 100 µM,> 100 µM,> 100 µM,> 100 µM,> 100 µM,> 100 µM,> 100 µM,> 100 µM,> 100 µM,–,–,–,–,–,–,–,–,–
COC(=O)c1ccc2c(c1)CCN2C(=O)c1cc2c(cc1Br)OCO2,48.3 µM and > 100 µM,50 µM,50 µM and 12.1 µM,50 µM and > 100 µM,50 µM and 40.3 µM,–,50 µM and 6.16 µM,50 µM and 14.7 µM,37.6 µM and > 100 µM,26.9 µM and > 100 µM,3.21 µM,0.507 µM,0.455 µM,0.432 µM,0.677 µM,0.746 µM,1.52 µM,27.1 µM,3.02 µM
COc1ccc(/C=C/C=C2C(=O)NC(=S)NC2=O)cc1,19.5 µM,47.2 µM,19.6 µM,15.4 µM,25.4 µM,13.7 µM,21 µM,13.1 µM,7.33 µM,17.7 µM,–,–,–,–,–,–,–,–,–
COC(=O)c1ccc2c(c1)CC1(C2)Cc2ccc3c(c2C1)CCC3 (stereo not drawn),> 100 µM,> 100 µM,55.4 µM,> 100 µM,> 100 µM,> 100 µM,> 100 µM,> 100 µM,> 100 µM,> 100 µM,–,–,–,–,–,–,–,–,–
